Results published in patent US11470846B2, “Herbicidal pyridino-/pyrimidino-thiazoles” (SYNGENTA PARTICIPATIONS AG, priority 2014, dated 2022).

Key:
Format in all cases: in vivo
[1] = system: Echinochloa crus-galli (ECHCG); test: Post-emergence herbicidal activity; settings: post-emergence application, 1000 g/Ha, evaluated after 13 days, scale 0-5; Table 7
Procedure: (§1) B2 Post-Emergence Herbicidal Activity
(§2) Seeds of a variety of test species were sown in standard soil in pots: Triticum aestivium (TRZAW), Oryza sativa (ORYSA), Avena fatua (AVEFA), Alopecurus myosuroides (ALOMY), Echinochloa crus-galli (ECHCG), Lolium perenne (LOLPE), Zea Mays (ZEAMX), Abutilon theophrasti (ABUTH), Amaranthus retroflexus (AMARE) and Setaria faberi (SETFA). After 8 days cultivation (post-emergence) under controlled conditions in a glasshouse (at 24/16° C., day/night; 14 hours light; 65% humidity), the plants were sprayed with an aqueous spray solution derived from the formulation of the technical active ingredient in acetone/water (50:50) solution containing 0.5% Tween 20 (polyoxyethelyene sorbitan monolaurate, CAS RN 9005-64-5). The test plants were then grown in a glasshouse under controlled conditions (at 24/16° C., day/night; 14 hours light; 65% humidity) and watered twice daily. After 13 days, the test was evaluated (5=total damage to plant; 0=no damage to plant).

[2] = system: Alopecurus myosuroides (ALOMY); test: Post-emergence herbicidal activity; settings: post-emergence application, 1000 g/Ha, evaluated after 13 days, scale 0-5
Procedure: as §1, §2

Oryza sativa (ORYSA) [3] = test: Post-emergence herbicidal activity; settings: post-emergence application, 1000 g/Ha, evaluated after 13 days, scale 0-5
Procedure: as §1, §2

Lolium perenne (LOLPE) [4] = test: Post-emergence herbicidal activity; settings: post-emergence application, 1000 g/Ha, evaluated after 13 days, scale 0-5; Table 7
Procedure: as §1, §2

[5] = system: Triticum aestivium (TRZAW); test: Post-emergence herbicidal activity; settings: post-emergence application, 1000 g/Ha, evaluated after 13 days, scale 0-5
Procedure: as §1, §2

Avena fatua (AVEFA) [6] = test: Post-emergence herbicidal activity; settings: post-emergence application, 1000 g/Ha, evaluated after 13 days, scale 0-5
Procedure: as §1, §2

[7] = system: Echinochloa crus-galli (ECHCG); test: Pre-emergence herbicidal activity; settings: pre-emergence application, 1000 g/Ha, evaluated after 13 days, scale 0-5; Table 5
Procedure: (§3) B1 Pre-Emergence Herbicidal Activity
as §2, with “After” for “After 8 days”, “for one day (pre-emergence)” for “(post-emergence)”

[8] = system: Alopecurus myosuroides (ALOMY); test: Pre-emergence herbicidal activity; settings: pre-emergence application, 1000 g/Ha, evaluated after 13 days, scale 0-5
Procedure: as §3
as §2, with “After” for “After 8 days”, “for one day (pre-emergence)” for “(post-emergence)”

Oryza sativa (ORYSA) [9] = test: Pre-emergence herbicidal activity; settings: pre-emergence application, 1000 g/Ha, evaluated after 13 days, scale 0-5
Procedure: as §3
as §2, with “After” for “After 8 days”, “for one day (pre-emergence)” for “(post-emergence)”

Lolium perenne (LOLPE) [10] = test: Pre-emergence herbicidal activity; settings: pre-emergence application, 1000 g/Ha, evaluated after 13 days, scale 0-5; Table 5
Procedure: as §3
as §2, with “After” for “After 8 days”, “for one day (pre-emergence)” for “(post-emergence)”

[11] = system: Triticum aestivium (TRZAW); test: Pre-emergence herbicidal activity; settings: pre-emergence application, 1000 g/Ha, evaluated after 13 days, scale 0-5
Procedure: as §3
as §2, with “After” for “After 8 days”, “for one day (pre-emergence)” for “(post-emergence)”

Avena fatua (AVEFA) [12] = test: Pre-emergence herbicidal activity; settings: pre-emergence application, 1000 g/Ha, evaluated after 13 days, scale 0-5
Procedure: as §3
as §2, with “After” for “After 8 days”, “for one day (pre-emergence)” for “(post-emergence)”

| SMILES | Control of weed species, ECHCG (damage score) [1] | Control of weed species, ALOMY (damage score) [2] | Control of weed species, ORYSA (damage score) (Oryza sativa (ORYSA) [3]) | Control of weed species, LOLPE (damage score) (Lolium perenne (LOLPE) [4]) | Control of weed species, TRZAW (damage score) [5] | Control of weed species, AVEFA (damage score) (Avena fatua (AVEFA) [6]) | Control of weed species, ECHCG (damage score) [7] | Control of weed species, ALOMY (damage score) [8] | Control of weed species, ORYSA (damage score) (Oryza sativa (ORYSA) [9]) | Control of weed species, LOLPE (damage score) (Lolium perenne (LOLPE) [10]) | Control of weed species, TRZAW (damage score) [11] | Control of weed species, AVEFA (damage score) (Avena fatua (AVEFA) [12]) |
| --- | --- | --- | --- | --- | --- | --- | --- | --- | --- | --- | --- | --- |
| Cc1nc(-c2cccnc2)sc1N(C)C(=O)OC(C)(C)C [Compound A1, tert-butyl N-methyl-N-[4-methyl-2-(3-pyridyl)thiazol-5-yl]carbamate] | 4 | 0 | 1 | 4 | 0 | 4 | 4 | 2 | 2 | 2 | 2 | 4 |
| Cc1nc(-c2cncnc2)sc1N(C)C(=O)OC(C)(C)C [Compound A2, tert-butyl N-methyl-N-(4-methyl-2-pyrimidin-5-yl-thiazol-5-yl)carbamate] | 5 | 1 | 1 | 3 | 1 | 5 | 5 | 0 | 1 | 2 | 0 | 3 |
| Cc1nc(-c2cncc(F)c2)sc1N(C)C(=O)OC(C)(C)C [Compound A3, tert-butyl N-[2-(5-fluoro-3-pyridyl)-4-methyl-thiazol-5-yl]-N-methyl-carbamate] | 5 | 1 | 1 | 3 | 1 | 4 | 4 | 1 | 1 | 2 | 1 | 3 |
| Cc1nc(-c2cncc(Cl)c2)sc1N(C)C(=O)OC(C)(C)C [Compound A4] | 4 | 0 | 1 | 2 | 1 | 5 | 4 | 1 | 0 | 2 | 0 | 4 |
| Cc1nc(-c2cncc(C=O)c2)sc1N(C)C(=O)OC(C)(C)C [Compound A5] | 0 | 0 | 0 | 0 | 0 | 0 | 0 | 0 | 0 | 0 | 0 | 0 |
| COc1cncc(-c2nc(C)c(N(C)C(=O)OC(C)(C)C)s2)c1 [Compound A6] | 4 | 1 | 0 | 2 | 1 | 2 | 2 | 1 | 1 | 1 | 0 | 0 |
| Cc1nc(-c2cncc(C#N)c2)sc1N(C)C(=O)OC(C)(C)C [Compound A7] | 5 | 1 | 1 | 3 | 2 | 4 | 2 | 1 | 1 | 2 | 1 | 4 |
| Cc1nc(-c2cncc(C(N)=O)c2)sc1N(C)C(=O)OC(C)(C)C [Compound A8] | 3 | 1 | 1 | 0 | 2 | 2 | 0 | 0 | 0 | 0 | 0 | 0 |
| Cc1nc(-c2cncc(S(C)(=O)=O)c2)sc1N(C)C(=O)OC(C)(C)C [Compound A9] | 2 | 1 | 1 | 1 | 2 | 2 | 0 | 0 | 0 | 0 | 0 | 0 |
| Cc1nc(-c2cncc(C(F)(F)F)c2)sc1N(C)C(=O)OC(C)(C)C [Compound A10] | 4 | 0 | 1 | 0 | 1 | 2 | 1 | 0 | 1 | 1 | 1 | 1 |
| Cc1nc(-c2cncc(N)c2)sc1N(C)C(=O)OC(C)(C)C [Compound A11] | 2 | 1 | 1 | 1 | 2 | 1 | 2 | 1 | 2 | 0 | 2 | 1 |
| Cc1nc(-c2cncc(F)c2)sc1NC(=O)OC(C)(C)C [Compound A35, tert-butyl N-[2-(5-fluoro-3-pyridyl)-4-methyl-thiazol-5-yl]carbamate] | 2 | 0 | 0 | 0 | 1 | 1 |  |  |  |  |  |  |
| Cc1nc(-c2cccnc2)sc1N(C)C(=O)Oc1ccc([N+](=O)[O-])cc1 [Compound A61, (4-nitrophenyl) N-methyl-N-[4-methyl-2-(3-pyridyl)thiazol-5-yl]carbamate] | 1 | 0 | 0 | 1 | 1 | 2 |  |  |  |  |  |  |
